Tests used:
skin of hairless mice [1] = test: Analysis of wrinkles in hairless mice (image analysis of skin replicas); assay type: in vivo, hairless mouse (HR/ICR); conditions: 5 wt. % in ethanol, 80 μl; UV-B sixteen weeks; shadow area of skin replicas, 30°; control (ethanol) 6.46 ± 0.68
Procedure: (§1) To each hairless mouse (HR/ICR, 6 weeks old when the test started), a test substance (5 wt. %, in ethanol) was applied. (80 μl). Approximately 10 minutes later, UV-B was irradiated thereto using 6 bulbs of health lamps (SL20-SLE, Toshiba) so that the dose per irradiation was not greater than 1 MED. Irradiation was repeated five times per week over sixteen weeks. While the irradiation energy was measured using a UV-radiometer (UVR-305/S65D, Tokyo Optical K.K.) so that the dose per irradiation was not greater than 1 MED, energy was irradiated at an intensity of 0.28 mW/cm^2, with the total dose. 100 mJ/cm^2. As a control, a case where only ethanol was applied was similarly tested in a manner performed on the test substances.
In order to analyze the wrinkles formed in the above step (1) in detail, replicas of different skin areas (3 replicas per mouse) each having a round shape with a diameter of 1 cm were obtained using a hydrophilic exaflex, hydrophilic vinyl silicone imaging agent. Each replica was placed horizontally and lightened from an angle of 30°. The area of shadows formed by wrinkles was analyzed as the area ratio using an image analyzing apparatus.

skin of hairless mice [2] = test: Inhibition of wrinkle formation in hairless mice (visual wrinkle index); assay type: in vivo, hairless mouse (HR/ICR); conditions: 5 wt. % in ethanol, 80 μl; UV-B five times per week, sixteen weeks; scale 1 (no wrinkles) to 4; control (ethanol) 3.78 ± 0.08
Procedure: (1) Inhibition of wrinkle formation in hairless mice.
as §1
After completion of the testing, the level of wrinkle formation was visually determined using the following standards (wrinkle indices).
1: No wrinkles are formed
2: Small amounts of wrinkles are formed
3: Moderate amounts of wrinkles are formed
4: Considerable amounts of wrinkles are formed

Compound	Area ratio of image analysis (skin of hairless mice [1]) [%]	Wrinkle index (skin of hairless mice [2])
COc1ccc(N(Cc2ccc(C)o2)Cc2ccc(C)o2)cc1 [Compound (26), N,N-bis(5-methylfurfuryl)-p-methoxyphenylamine]	3.69 ± 0.59	2.44 ± 0.33
CCCCC(CC)CN(Cc1ccco1)Cc1ccco1 (centres unmarked) [Compound (23), N,N-bisfurfuryl-2-ethylhexylamine]	3.23 ± 0.18	2.17 ± 0.05
Cc1ccc(N(Cc2ccc(C)o2)Cc2ccc(C)o2)cc1 [Compound (29), N,N-bis(5-methylfurfuyl)-4-methylphenylamine]	3.64 ± 0.12	2.28 ± 0.06
CC(=O)Oc1c(C)c(C)c2c(c1C)CCC(C)(CCCC(C)CCCC(C)CCCC(C)C)O2 (stereo not drawn) [α-Tocopheryl acetate, reference compound]	4.67 ± 0.48	3.28 ± 0.23
COc1ccc(N(Cc2ccco2)Cc2ccc(C)o2)cc1 [Compound (31), N-furfuryl-N-(S-methylfurfuryl)-4-methoxyphenylamine]	3.30 ± 0.17	2.49 ± 0.20
CCOC(=O)CN(Cc1ccco1)Cc1ccco1 [Compound (24), ethyl N,N-bisfurfurylglycine]	3.27 ± 0.29	2.56 ± 0.08
COc1ccc(N(Cc2ccc(C)o2)Cc2ccc(C)o2)cc1OC [Compound (27), N,N-bis(5-methylfurfuryl)-3,4-dimethoxyphenylamine]	3.73 ± 0.29	2.22 ± 0.17
Cc1ccc(CN(Cc2ccc(C)o2)c2ccccc2C)o1 [Compound (30), N,N-bis(5-methylfurfuryl)-2-methylphenylamine]	3.39 ± 0.47	2.51 ± 0.43
CCCCN(Cc1ccco1)Cc1ccco1 [Compound (22), N,N-bisfurfurylbutylamine]	3.37 ± 0.30	2.34 ± 0.16
Cc1ccc(CN(Cc2ccc(C)o2)c2ccccc2)o1 [Compound (25), N,N-bis(5-methylfurfuryl)phenylamine]	3.32 ± 0.21	2.35 ± 0.34
